{"source": "patent US11793824B2", "about": "“Administration of nicotinamide mononucleotide in the treatment of disease” (Washington University, priority 2013, dated 2023)", "key": {"[1]": {"system": "NestinGFP+ cells", "assay": "Cuprizone model of demyelination and remyelination, fate of NestinGFP+ cells", "format": "in vivo, mouse", "protocol": "Demyelination was induced by feeding 6 to 8-week-old mice a diet containing 0.2% cuprizone (bis-cyclohexanone oxaldihydrazone; Sigma C9012) mixed into a ground standard rodent chow for 4 to 5 weeks (Harlan Laboratories, TD.01453). To allow recovery from cuprizone treatment, food was replaced with standard chow for an additional 1 week.\nAll tissue sections were and cells incubated in blocking/permeabilization solution containing 10% normal goat serum, 1% BSA, and 0.3% Triton-X in PBS for 45 to 60 min prior to 24 or 48 h of incubation with primary antibodies in 5% normal goat serum and 0.1% Triton-X in PBS at 4° C. at the concentrations listed below. […], Alexa488, or Cy3 conjugated-secondary antibodies diluted in 2% normal goat serum, 1% BSA, and 0.1% Triton-X in PBS were added for 2 h at room temperature. Nuclei were stained with 4,6-diamidino-2-phenylindole (Sigma) for 10 min at room temperature.\nFor tissue sections, high-magnification (20×, 0.8DICII or 40× oil 1.3DICII) microscopic imaging was performed using a Zeiss Axioimage.Z1. Images were taken in z-stacks of 1 μm steps through the range of tissue section immunoreactivity. For the dorsolateral corner of the SVZ, images were taken from bregma 1.10 to −0.10 mm. For the corpus callosum, images were taken from bregma −1.06 to −2.54 mm. For the dentate gyrus, images were taken from bregma −1.34 to −3.64 mm. Quantification was performed blinded to genotype on 3-8 tissue sections per animal. Cell densities were estimated by the number of immunoreactive cells divided by the area of the structure, measured with ImageJ. Verification of colocalization was achieved by importing stacks of Z images into ImageJ and performing 3D rendering. For cells, 10 or 20× microscopic imaging was performed using a Zeiss Axioimage.Z1. Quantification was performed blinded to genotype on 2 to 3 fields of view per sample and treatment, from 3 to 9 independent samples.\nThe inventors employed the cuprizone model of demyelination and remyelination. Specifically, the inventors fed 6- to 9-week-old iNSPC-Nampt-KO and littermate control mice (iNSPC-GFP) a diet containing 0.2% cuprizone for 4-5 weeks, inducing deletion of Nampt in the adult Nestin+ population the week before starting the cuprizone diet (FIG. 20B) (Skripuletz et al, 2011). To ensure that analysis of progeny of adult Nestin+ cells, all mice in our cohort expressed Cre recombinase under the inducible Nestin promoter (Nestin-CreERT2) (Lagace et al, 2007) and the aforementioned Cre recombinase responsive GFP reporter transgene. The analysis focus was on lineage tracer marked (NestinGFP+) cells."}, "[2]": {"target": "T1, Sirt1 (Mus musculus, UniProt Q923E4)", "T1 construct": "endogenous in cells; host or cells: dissociated primary neurospheres (NSPCs) from postnatal mouse hippocampi, differentiated for 6-7 days", "T1 sequence (Q923E4 1-737)": "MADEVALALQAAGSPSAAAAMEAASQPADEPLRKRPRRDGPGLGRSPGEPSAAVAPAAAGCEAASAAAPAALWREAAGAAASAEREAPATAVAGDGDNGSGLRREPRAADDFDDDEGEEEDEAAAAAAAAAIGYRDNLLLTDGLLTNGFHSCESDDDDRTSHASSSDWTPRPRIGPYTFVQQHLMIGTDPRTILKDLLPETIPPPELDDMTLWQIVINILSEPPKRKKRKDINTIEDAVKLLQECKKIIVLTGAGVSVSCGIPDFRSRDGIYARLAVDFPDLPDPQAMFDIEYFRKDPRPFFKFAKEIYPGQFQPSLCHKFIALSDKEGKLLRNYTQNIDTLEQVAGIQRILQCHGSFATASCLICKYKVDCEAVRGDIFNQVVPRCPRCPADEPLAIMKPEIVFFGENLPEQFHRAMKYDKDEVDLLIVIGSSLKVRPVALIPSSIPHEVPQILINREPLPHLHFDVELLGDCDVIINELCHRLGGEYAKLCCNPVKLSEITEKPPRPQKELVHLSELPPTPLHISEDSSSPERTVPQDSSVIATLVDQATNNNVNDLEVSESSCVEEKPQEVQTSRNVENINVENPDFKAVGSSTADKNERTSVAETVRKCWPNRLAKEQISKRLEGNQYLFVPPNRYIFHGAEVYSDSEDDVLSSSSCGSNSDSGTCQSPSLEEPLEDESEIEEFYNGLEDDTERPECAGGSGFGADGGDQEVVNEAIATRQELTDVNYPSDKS", "assay": "Oligodendrocyte formation from dissociated neurospheres with Sirt1 inhibitor", "format": "cell-based", "conditions": "EX527 80 μM, 6-7 days of differentiation", "from_the_text": "Data are presented as mean±s.e.m. *P<0.05. **P<0.01. ***P<0.001."}, "[3]": {"conditions": "cited from earlier work"}, "[4]": {"target": "T2, Sirt2 (Mus musculus, UniProt Q8VDQ8)", "T2 construct": "endogenous in cells; host or cells: dissociated primary neurospheres (NSPCs) from postnatal mouse hippocampi, differentiated for 6-7 days", "T2 sequence (Q8VDQ8 1-389)": "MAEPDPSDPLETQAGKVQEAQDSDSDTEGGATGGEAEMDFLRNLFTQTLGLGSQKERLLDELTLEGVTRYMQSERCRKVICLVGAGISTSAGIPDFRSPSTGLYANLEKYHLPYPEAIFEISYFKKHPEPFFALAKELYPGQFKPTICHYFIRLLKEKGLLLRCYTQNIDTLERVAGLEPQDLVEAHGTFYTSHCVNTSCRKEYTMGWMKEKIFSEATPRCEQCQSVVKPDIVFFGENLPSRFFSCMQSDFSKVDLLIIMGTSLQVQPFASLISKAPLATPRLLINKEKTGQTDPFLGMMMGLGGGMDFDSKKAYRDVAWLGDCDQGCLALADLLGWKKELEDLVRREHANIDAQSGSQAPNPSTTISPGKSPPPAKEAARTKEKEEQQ", "assay": "Oligodendrocyte formation from dissociated neurospheres with Sirt2 inhibitor", "format": "cell-based", "conditions": "AGK2 10 μM, 6-7 days of differentiation", "protocol": "FK866 (Hasmann & Schemainda, 2003) (Sigma F8557), EX527 (Peck et al, 2010) (Cayman Chemical 10009798), and AGK2 (Outeiro et al, 2007) (Sigma A8231) were dissolved in DMSO and used to inhibit Nampt, Sirt1, and Sirt2 respectively.\nThree to five days after their first passage, neurospheres were trypsinized, washed with dissociation medium, and plated at 150,000 cells per well in 24-well plates in differentiation medium [growth medium without FGF and EGF and with BDNF (5 ng/mL, Peprotech, 450-02) on glass coverslips coated with poly-D-lysine (50 ug/mL; Sigma) and laminin (20 ug/mL; BD Biosciences)]. 6-well plates were coated with poly-D-lysine (20 ug/mL) and laminin (10 ug/mL). To enrich for oligodendrocytes, PDGFαα (10 ng/ml, Peprotech 100-13A) was added to neurospheres at passage 2 and PDGFαα (2.5 ng/ml) and 3,3-,5-triiodo-L-thyronine (T3, 40 ng/ml, Sigma T4397) were added to differentiation medium. The percentage of oligodendrocyte precursor cells (OPCs) generated was analyzed after 2 d of differentiation, and the percentage of differentiated oligodendrocytes was analyzed after 6-7 d of differentiation.\nThe inventors acutely treated NSPCs with the selective inhibitor of Sirt2, AGK2, or the Sirt1 inhibitor, EX527. […] The inventors generated Sirt1/Sirt2-double knockout (Sirt1/2 DKO) neurospheres. […]"}, "[5]": {"conditions": "CC of control mice, cuprizone feeding"}, "[6]": {"conditions": "iNSPC-GFP CC, cuprizone feeding"}}}
{"compound": "O=C(NN=C1CCCCC1)C(=O)NN=C1CCCCC1", "note": "[cuprizone, bis-cyclohexanone oxaldihydrazone]", "values": [{"measurement": "total number of NestinGFP+ cells in the iNSPC-GFP DG", "setting": "[1]; 0.2% cuprizone diet 4-5 weeks", "result": "did not alter"}, {"measurement": "NestinGFP+Apc+ double positive cells", "setting": "[1]; [5]", "result": 4, "unit": "%"}, {"measurement": "NestinGFP+Sox10+ double positive cells", "setting": "[1]; [5]", "result": 16, "unit": "%"}, {"measurement": "percentage of NestinGFP+ cells co-localized with Gfap+", "setting": "[1]; SGZ, cuprizone fed", "result": 41, "unit": "%"}, {"measurement": "percentage of NestinGFP+ cells co-localized with Nestin+", "setting": "[1]; SGZ, cuprizone fed", "result": 35, "unit": "%"}, {"measurement": "NestinGFP+Gfap+ double positive cells", "setting": "[1]; [6]", "result": 24, "unit": "%"}, {"measurement": "percentage of NestinGFP+Nestin+ cells", "setting": "[1]; [6]", "result": 41, "unit": "%"}]}
{"compound": "NC(=O)C1CCCc2c1[nH]c1ccc(Cl)cc21", "note": "(stereo not drawn) [EX527]", "values": [{"measurement": "oligodendrocyte formation (O4+)", "setting": "[2]", "result": "acutely suppressed oligodendrocyte formation"}]}
{"compound": "O=C(O)c1cccnc1", "note": "[nicotinic acid]", "values": [{"measurement": "skeletal muscle insulin resistance", "setting": "[3]; chronic administration", "result": "can cause skeletal muscle insulin resistance"}, {"measurement": "blood FFA levels", "setting": "[3]; chronic treatment", "result": "tends to increase blood FFA levels"}, {"measurement": "total cholesterol and triglyceride levels", "setting": "[3]; chronic treatment", "result": "lowers total cholesterol and triglyceride levels"}]}
{"compound": "N#C/C(=C\\c1ccc(-c2cc(Cl)ccc2Cl)o1)C(=O)Nc1cccc2ncccc12", "note": "[AGK2]", "values": [{"measurement": "oligodendrocyte formation (O4+)", "setting": "[4]", "result": "acutely suppressed oligodendrocyte formation"}]}
